Laboratory results from patent publication US6596772B1, “Phosphate mimics and methods of treatment using phosphatase inhibitors” (Sugen, Inc., priority 1999, dated 2003).

Legend:
Format in all cases: biochemical
[1] = molecular target: T1, PTP MU (Homo sapiens, UniProt P28827); test: PTP IC50 assay, pNPP or FDP as substrate; details: pNPP or FDP as substrate, 25° C.; read-out: PTP IC50 Mu
T1 construct: made in house; host or cells: E. coli BL-21 (pGEX 6P-1)
Protocol: (§1) The following in vitro assay procedure is preferred to determine the level of activity and effect of the different compounds of the present invention on one or more of the PTPs. Similar assays can be designed along the same lines for any PTP using techniques well known in the art.
(§2) The catalytic assays described herein are performed in a 96-well format. The general procedure begins with the determination of PTP optimal pH using a three-component buffer system that minimizes ionic strength variations across a wide range of buffer pH. Next, the Michaelis-Menten constant, or Km, is determined for each specific substrate-PTP system. This Km value is subsequently used as the substrate reaction concentration for compound screening. Finally, the test PTP is exposed to varying concentrations of compound for fifteen minutes and allowed to react with substrate for ten minutes. The results are plotted as percent inhibition versus compound concentration and the IC50 interpolated from the plot.
(§3) All assays were performed using pNPP or FDP as substrate. The optimum pH was determined for each PTP used.
(§4) PTPase activity was assayed at 25° C. in a 100-μl reaction mixture containing an appropriate concentration of pNPP or FDP as substrate. The reaction was initiated by addition of the PTP and quenched after 10 min by addition of 50 μl of IN NaOH. The non-enzymatic hydrolysis of the substrate was corrected by measuring the control without the addition of the enzyme. The amount of p-nitrophenol produced was determined from the absorbance at 410 nm. To determine the kinetic parameter, Km, the initial velocities were measured at various substrate concentrations and the data were fitted to the Michaelis equation where velocity=(Vmax*[S])/(Km+[S]), and [S]=substrate reaction concentration.
(§5) The effect of the compounds on PTP was evaluated at 25° C. using pNPP or FDP as substrate. PTP was pre-incubated for fifteen minutes with various concentrations of compound. Substrate was then added at a fixed concentration (usually equal to the Km previously calculated). After 10 minutes, NaOH was added to stop the reaction. The hydrolysis of pNPP was followed at 410 nm on the Biotek Powerwave 200 microplate scanning spectrophotometer. The percent inhibition was calculated as follows: Percent Inhibition=[(control signal−compound signal)/control signal] ×100%. The IC50 was then determined by interpolation of a percent inhibition versus compound concentration plot.
(§6) Plasmids designed for bacterial GST-PTP fusion protein expression were derived by insertion of PCR-generated human PTP fragments into pGEX vectors (Pharmacia Biotech). Several of these constructs were then used to subclone phosphatases into pFastBac-1for expression in Sf-9 insect cells. Oligonucleotides used for the initial amplification of PTP genes are shown below. The cDNAs were prepared using the Gilbo BRL superscript preamplification system on RNAs purchased from Clontech.
The PTP Mu cDNA was amplified from a human lung cDNA library (Clontech) using the following oligonucleotides; 5′oligo: 5′-[…]-3′ (SEQ ID NO: 18) 3′oligo: 5′-[…]-3′ (SEQ ID NO: 19) It was subsequently ligated into the Eco RI/Xho I sites of pGEX 6P-1.

[2] = molecular target: T2, PTP DEP1 (Homo sapiens, UniProt Q12913); test: PTP IC50 assay, pNPP or FDP as substrate; details: 25° C.
T2 construct: GST-fusion proteins encompassing the entire cytoplasmic domain was done by PCR; made in house; host or cells: E. coli BL-21 (pGEX 2T)
T2 sequence (Q12913 997-1337 limits assumed): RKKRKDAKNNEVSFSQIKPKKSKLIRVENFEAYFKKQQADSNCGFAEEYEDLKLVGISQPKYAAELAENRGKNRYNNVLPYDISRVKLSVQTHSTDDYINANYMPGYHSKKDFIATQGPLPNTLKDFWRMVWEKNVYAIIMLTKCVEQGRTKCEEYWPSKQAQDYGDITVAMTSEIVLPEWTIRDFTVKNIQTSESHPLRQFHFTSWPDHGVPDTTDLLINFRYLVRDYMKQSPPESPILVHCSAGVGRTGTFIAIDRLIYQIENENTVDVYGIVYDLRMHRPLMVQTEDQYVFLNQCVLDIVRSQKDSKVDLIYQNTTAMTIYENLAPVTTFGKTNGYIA
Protocol: as §1, §2, §3, §4, §5, §6
The full length DEP1 cDNA was isolated from a human mammary cDNA library (Clontech). The construction of GST-fusion proteins encompassing the entire cytoplasmic domain was done by PCR using the following oligos; 5′oligo: 5′-[…]-3′ (SEQ ID NO: 20) 3′oligo: 5′-[…]-3′ (SEQ ID NO: 21) It was subsequently ligated into the Eco RI/Bam H1 sites of pGEX 2T.

[3] = molecular target: T3, PTP ALPHA (Homo sapiens, UniProt P18433); test: PTP IC50 assay, pNPP or FDP as substrate; details: 25° C.
T3 construct: RTPα intracellular domain construct was obtained; made in house; host or cells: E. coli BL-21 (pGEX 3X)
Protocol: as §1, §2, §3, §4, §5, §6
RTPα intracellular domain construct was obtained, Schlessinger et al., U.S. Pat. No. 5,888,794, the contents of which are hereby incorporated in their entirety into the present application. The RTPα fragment was cloned into pGEX 3× using the following procedure. The portion from EclX I/Xma III/Eag I (N-terminus blunted by Klenow) to Eco RV was cloned into the Sma I site. The EclX I site is approximately 15 residues downstream of the transmembrane domain.

[4] = molecular target: T4, PTP ZETA (Homo sapiens, UniProt P23471); test: PTP IC50 assay, pNPP or FDP as substrate; details: 25° C.
T4 construct: made in house; host or cells: E. coli BL-21 (pGEX 6P-1)
T4 sequence (P23471 1667-2028 limits assumed): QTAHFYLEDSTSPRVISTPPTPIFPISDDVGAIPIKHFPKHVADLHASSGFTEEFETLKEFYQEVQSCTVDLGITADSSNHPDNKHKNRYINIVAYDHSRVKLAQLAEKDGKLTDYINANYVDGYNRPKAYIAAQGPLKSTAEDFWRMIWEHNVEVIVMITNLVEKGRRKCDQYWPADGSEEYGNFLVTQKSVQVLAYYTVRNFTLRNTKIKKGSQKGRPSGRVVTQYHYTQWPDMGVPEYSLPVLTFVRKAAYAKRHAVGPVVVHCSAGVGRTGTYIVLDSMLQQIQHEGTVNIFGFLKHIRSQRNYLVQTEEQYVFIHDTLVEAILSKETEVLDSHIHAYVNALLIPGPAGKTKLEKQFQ
Protocol: as §1, §2, §3, §4, §5, §6
The PTP Zeta cDNA was amplified from human placenta single strand cDNA (Clontech RNA) using the following oligonucleotides 5′oligo: 5′-[…]-3′ (SEQ ID NO: 10) 3′oligo: 5′-[…]-3′ (SEQ ID NO: 11) and subsequently ligated into pGEX 6P-1 Eco RI/Xho I sites.

[5] = molecular target: T5, PTP PEST (Homo sapiens, UniProt Q05209); test: PTP IC50 assay, pNPP or FDP as substrate; details: 25° C.
T5 construct: made in house; host or cells: E. coli BL-21 (pGEX 6P-1)
T5 sequence (Q05209 1-343 limits assumed): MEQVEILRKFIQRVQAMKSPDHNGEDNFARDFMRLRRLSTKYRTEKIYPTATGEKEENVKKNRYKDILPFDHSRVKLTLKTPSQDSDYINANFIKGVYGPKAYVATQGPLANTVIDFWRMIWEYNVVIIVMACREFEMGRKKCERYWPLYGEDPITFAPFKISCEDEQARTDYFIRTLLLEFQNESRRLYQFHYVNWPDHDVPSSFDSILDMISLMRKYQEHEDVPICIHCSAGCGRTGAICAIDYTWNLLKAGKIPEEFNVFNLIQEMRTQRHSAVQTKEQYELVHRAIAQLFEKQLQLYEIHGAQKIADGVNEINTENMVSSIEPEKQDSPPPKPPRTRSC
Protocol: as §1, §2, §3, §4, §5, §6
The PTP PEST CDNA was amplified from an HeLa cDNA library (Clonetech RNA) using the following oligonucleotides: 5′oligo: 5′-[…]-3′ (SEQ ID NO: 14) 3′oligo: 5′-[…]-3′ (SEQ ID NO: 15) It was subsequently ligated into the Eco RI/Xho I sites of pGEX 6P-1.

[6] = molecular target: T6, PTP EPSILON (Homo sapiens, UniProt P23469); test: PTP IC50 assay, fluorescent substrate DiFMUP; details: DiFMUP as substrate, 25° C.; read-out: PTP IC50 Epilson
T6 construct: made in house; host or cells: Sf-9 insect cells (pFastBac-G2T); a pGEX 6P-1 construct also existed
T6 sequence (P23469 80-393 limits assumed): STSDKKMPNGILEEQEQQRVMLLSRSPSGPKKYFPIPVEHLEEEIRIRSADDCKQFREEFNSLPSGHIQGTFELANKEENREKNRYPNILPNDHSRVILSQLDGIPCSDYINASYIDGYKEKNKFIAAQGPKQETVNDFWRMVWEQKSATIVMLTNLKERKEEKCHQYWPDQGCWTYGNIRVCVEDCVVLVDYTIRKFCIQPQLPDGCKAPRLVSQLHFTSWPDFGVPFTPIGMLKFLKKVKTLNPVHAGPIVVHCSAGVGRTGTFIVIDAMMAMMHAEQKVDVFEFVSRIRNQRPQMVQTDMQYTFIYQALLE

[7] = molecular target: T7, PTP 1B (Homo sapiens, UniProt P18031); test: PTP IC50 assay, fluorescent substrate DiFMUP; details: DiFMUP as substrate, 25° C.; read-out: PTP IC50 1B
T7 construct: made in house; host or cells: Sf-9 insect cells (pFastBac-G2T)
T7 sequence (P18031 1-435): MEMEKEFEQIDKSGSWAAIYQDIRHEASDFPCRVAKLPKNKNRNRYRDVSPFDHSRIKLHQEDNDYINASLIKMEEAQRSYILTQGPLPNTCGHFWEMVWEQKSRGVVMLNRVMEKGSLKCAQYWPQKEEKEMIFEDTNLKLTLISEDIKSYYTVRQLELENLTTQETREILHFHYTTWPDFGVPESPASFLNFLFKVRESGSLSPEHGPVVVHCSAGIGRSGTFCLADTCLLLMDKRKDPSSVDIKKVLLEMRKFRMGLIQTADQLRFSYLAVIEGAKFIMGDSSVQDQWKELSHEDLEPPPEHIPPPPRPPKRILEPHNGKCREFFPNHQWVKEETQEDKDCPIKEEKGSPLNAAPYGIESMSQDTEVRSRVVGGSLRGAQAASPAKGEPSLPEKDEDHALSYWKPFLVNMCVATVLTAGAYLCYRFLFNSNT

[8] = molecular target: T8, PTP SHP2 (Homo sapiens, UniProt Q06124); test: PTP IC50 assay, fluorescent substrate DiFMUP; details: DiFMUP as substrate, 25° C.; read-out: PTP IC50 SHP2
T8 construct: The catalytic domain was amplified using the following oligonucleotides; made in house; host or cells: Sf-9 insect cells (pFastBac-G2T)
T8 sequence (Q06124 247-517 limits assumed): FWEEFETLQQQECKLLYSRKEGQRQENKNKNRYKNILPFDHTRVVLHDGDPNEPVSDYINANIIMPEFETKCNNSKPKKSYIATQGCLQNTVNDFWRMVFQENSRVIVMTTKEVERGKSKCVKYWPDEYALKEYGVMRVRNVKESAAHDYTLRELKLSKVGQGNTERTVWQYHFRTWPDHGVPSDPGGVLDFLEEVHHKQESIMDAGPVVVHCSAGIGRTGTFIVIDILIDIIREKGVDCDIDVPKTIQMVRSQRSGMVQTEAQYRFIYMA

T1 sequence (P28827 831-1186 limits assumed): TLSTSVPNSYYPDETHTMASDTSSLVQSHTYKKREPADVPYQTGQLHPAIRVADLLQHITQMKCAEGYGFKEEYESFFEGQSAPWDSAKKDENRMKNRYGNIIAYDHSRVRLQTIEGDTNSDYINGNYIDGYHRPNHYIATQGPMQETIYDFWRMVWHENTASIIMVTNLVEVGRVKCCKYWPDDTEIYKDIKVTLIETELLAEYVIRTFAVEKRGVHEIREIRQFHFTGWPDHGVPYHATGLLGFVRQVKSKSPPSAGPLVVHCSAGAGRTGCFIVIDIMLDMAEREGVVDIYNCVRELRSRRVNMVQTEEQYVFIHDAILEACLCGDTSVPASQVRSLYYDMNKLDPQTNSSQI

Structure (SMILES)	IC50 [1]	IC50 [2]	IC50 [3]	IC50 [4]	IC50 [5]	IC50 [6]	IC50 [7]	IC50 [8]
O=S(=O)(c1ccc(SSc2ccc(S(=O)(=O)C(F)(F)F)cc2)cc1)C(F)(F)F [Example 7, Bis (4-trifluoromethylsulfonylphenyl) disulfide]	> 100 µM	41 µM	> 100 µM	> 100 µM	22 µM			
CCOC(=O)c1cc2cc(N(S(=O)(=O)C(F)(F)F)S(=O)(=O)C(F)(F)F)ccc2n1CC(=O)OC(C)(C)C [Example 99, 1-tert-Butoxycarbonylmethyl-5-(N,N-ditrifluoromethanesulfonyl)amino-1H-indole-2-carboxylic acid ethyl ester]						27.5 µM	4.8 µM	7 µM
O=C(O)Cn1c(C(=O)O)cc2cc(N(S(=O)(=O)C(F)(F)F)S(=O)(=O)C(F)(F)F)ccc21 [Example 100, 1-Carboxymethyl-5-(N,N-ditrifluoromethanesulfonyl)amino-1H-indole-2-carboxylic acid]						> 100 µM	> 100 µM	> 20 µM

Now from value to compound:

IC50 [1]	IC50 [2]	IC50 [3]	IC50 [4]	IC50 [5]	IC50 [6]	IC50 [7]	IC50 [8]	Structure (SMILES)
					1.4 µM	6.6 µM	3.4 µM	CCOC(=O)c1cc2cc(NS(=O)(=O)C(F)(F)F)ccc2n1CC1CCCCC1 [Example 101, 1-Cyclohexylmethyl-5-trifluoromethanesulfonylamino-1H-indole-2-carboxylic acid ethyl ester]
					12.2 µM	43.1 µM	4 µM	O=C(O)c1cc2cc(NS(=O)(=O)C(F)(F)F)ccc2n1Cc1ccccc1 [Example 102, 1-Benzyl-5-trifluoromethanesulfonylamino-1H-indole-2-carboxylic acid]
					34.7 µM	> 100 µM	17.9 µM	O=C(O)c1cc2cc(NS(=O)(=O)C(F)(F)F)ccc2n1CC1CCCCC1 [Example 103, 1-Cyclohexylmethyl-5-trifluoromethanesulfonylamino-1H-indole-2-carboxylic acid]
